According to US20040176370A1, “3,4-Dihdro-N-[[1-(3-hydroxybutyl)-4-piperidinyl]methyl]-2H-[1,3]oxazino[3,2-a]indole-10-carboxamide as 5-HT(4) receptor antagonist” (SmithKline Beecham p.l.c., priority 1998, published 2004):

Experiments:
[1] = system: DMPP-evoked contractions (nicotinic receptor agonist); test: Selectivity test: cholinergically-mediated contractions of guinea-pig colon evoked by the nicotinic receptor agonist DMPP; assay type: cell-based; settings: guinea-pig colon LMMP, dose response curve to DMPP
Method: To test for selectivity of action, compounds are tested for their ability to antagonise cholinergically-mediated contractions of the guinea-pic colon, evoked by the nicotinic receptor agonist, DMPP (1,1-dimethyl-4-phenyl-piperazinium iodide). For these experiments, tissues and equipment are set up as for the above, 5HT4 receptor experiments. After sensitization, non-cumulative dose response curves are constructed to DMPP. Test compounds are incubated with the tissues as above, and a second dose response curve to DMPP created. Results are given as mean pKB±SEM values for each antagonists.

5-HT4 receptor = molecular target: T1, 5-HT4 receptor (Cavia porcellus, UniProt O70528); test: 5-HT4 receptor antagonist activity: 5-HT-evoked contractions of guinea-pig distal colon LMMP preparations; assay type: cell-based; settings: antagonism of 5-HT dose response curve, 45 minutes incubation
T1 construct: Longitudinal muscle-myenteric plexus (LMMP) preparations, 2-3 cm long, are obtained from the distal colon region; from tissue; host or cells: guinea-pig distal colon longitudinal muscle-myenteric plexus (LMMP)
Method: 5-HT4 RECEPTOR ANTAGONIST ACTIVITY
Male Dunkin Hartley guinea-pigs, weighing 200-300 g are used. Longitudinal muscle-myenteric plexus (LMMP) preparations, 2-3 cm long, are obtained from the distal colon region. These are suspended under a 0.5 g load in isolated tissue baths containing Krebs Henseleit solution (NaCl 118 mM, KCl 4.7 mM KH2PO4 1.2 mM MgSO4 7H2O 1.2 mM, Glucose 11.1 mM, NaHCO3 25 mM, CaCl2 6H2O 2.5 mM) bubbled with 5% CO2 in O2, maintained at 37° C. and containing 1 uM Granisetron and 0.1 uM Methiothepin to block 5HT3 and 5HT1-like receptors respectively. 100 uM Pargyline is also added to the tissues at the start of the experiment. Tissues are left for 15 minutes to equilibrate and then exposed to 5-HT at 0.1 uM every 15 minutes until a uniform response is achieved. Following a half hour period for tissues to stabilise, non-cumulative dose response curves to 5-HT are constructed in all tissues. When base-lines have returned to normal, test compounds are added in the reservoirs of the tissue set-ups and washed in to the tissues. Tissues are incubated with the antagonists for 45 minutes after which a second non-cumulative dose response curve to 5-HT is constructed. […]

T1 sequence (O70528 whole entry): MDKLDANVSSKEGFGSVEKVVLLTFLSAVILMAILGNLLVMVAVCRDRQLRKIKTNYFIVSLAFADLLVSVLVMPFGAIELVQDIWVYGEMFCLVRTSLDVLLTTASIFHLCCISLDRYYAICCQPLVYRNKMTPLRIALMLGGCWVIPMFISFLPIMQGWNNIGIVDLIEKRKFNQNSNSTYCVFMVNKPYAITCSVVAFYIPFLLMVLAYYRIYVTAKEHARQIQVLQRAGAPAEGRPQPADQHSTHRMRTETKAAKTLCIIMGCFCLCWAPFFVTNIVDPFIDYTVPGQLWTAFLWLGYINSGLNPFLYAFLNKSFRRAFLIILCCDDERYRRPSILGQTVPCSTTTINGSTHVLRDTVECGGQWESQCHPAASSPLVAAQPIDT

**Q.** How did the “effect on DMPP-evoked contractions” value [1] turn out when CC(O)CCN1CCC(CNC(=O)c2c3n(c4ccccc24)CCCO3)CC1 (racemic) [compound of formula (I), 3,4dihydro-N-[[1-(3-hydroxybutyl)-4-piperidinyl]methyl]-2H-[1,3]oxazino[3,2-α]indole-10-carboxamide] was run?
**A.** did not significantly affect

**Q.** What about the Kb (5-HT4 receptor) of the same compound?
**A.** 0.501 nM
